From patent publication US8551937B2, “Peptide having an extending action for half-life of object peptide in plasma” (priority 2008, dated 2013) come the findings set out here.

One data set can be described thus: in vivo. To be noted: male, SD, rat, iv, 10 nmol/kg. Here is the method: The experiment was carried out using rats into which polyethylene tube (PE-50 manufactured by Clay Adams) was previously inserted into thigh artery under an anesthetized condition with Nembutal. As to a test system, male SD strain rats (Nippon Charles River) of 7 weeks age were used where one group comprised 3 rats. Native CNP-22 or chimeric CNP in a dose of 10 nmol/kg was administered into tail vein of the rat and the blood before the administration and until 60 minutes after the administration was collected by a polyethylene tube inserted into the thigh artery. To the collected blood were added EDTA (manufactured by Dojin Laboratories) and aprotinin (manufactured by Bayer) as a stabilizer and an anti-coagulant, respectively and the plasma was separated therefrom by centrifugal separation. CNP immunoreactivity concentration in plasma was measured by a competitive radioimmunoassay (RIA). At that time, a rabbit polyclonal antibody (#2) which specifically recognizes the ring partial structure of the native CNP-22 was used as an antibody and, as a labeled compound, ^125I-[Tyr^0] CNP was used.

A short description of data set [1]: Motilin immunoreactivity concentration in plasma, half-life after intravenous administration (Example 6). To be noted: for half-life: SD, rat, plasma, 10 nmol/kg, male rats, N = 3, read-out: T½ Mean Value. It counts as in vivo, rat.
Experimental: The experiment was carried out using rats into which polyethylene tube (PE-50 manufactured by Clay Adams) was previously inserted into thigh artery under an anesthetized condition with Nembutal. As to a test system, male SD strain rats (Nippon Charles River) of 7 weeks age were used where one group comprised 3 rats. Human type motilin or a derivative thereof in a dose of 10 nmol/kg was administered into tail vein of the rat and the blood before the administration and until 60 minutes after the administration was collected by a polyethylene tube inserted into the thigh artery. To the collected blood were added EDTA (manufactured by Dojin Laboratories) and aprotinin (manufactured by Bayer) as a stabilizer and an anti-coagulant, respectively and the plasma was separated therefrom by centrifugal separation.
The nature of data set [2]: Motilin immunoreactivity concentration in plasma, half-life after intravenous administration (Example 8). The following applies: SD, rat, in vivo, 10 nmol/kg. In a few lines: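 Male SD rats (7 weeks, n=3/group) received human motilin or derivative at 10 nmol/kg i.v. via tail vein; arterial blood was sampled up to 60 min, with EDTA and aprotinin added. Plasma motilin immunoreactivity was measured by competitive RIA using a rabbit polyclonal antibody against native motilin residues 1–12 and ^125I-[Tyr^7] human motilin tracer.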

Where a SMILES comes first, the peptide text is derived from it. Bridges are numbered along the chain shown (N, C = ends).

Regarding `CC[C@H](C)[C@@H]1NC(=O)[C@H](CCCNC(=N)N)NC(=O)[C@H](CC(=O)O)NC(=O)[C@H](CC(C)C)NC(=O)[C@H](CCCCN)NC(=O)[C@H](CC(C)C)NC(=O)CNC(=O)[C@H](Cc2ccccc2)NC(=O)[C@@H](N)CSSC[C@@H](C(=O)N[C@H](C(=O)N[C@@H](CCC(N)=O)C(=O)N[C@@H](CCC(N)=O)C(=O)N[C@@H](CCCNC(=N)N)C(=O)N[C@@H](CCCCN)C(=O)N[C@@H](CCC(=O)O)C(=O)N[C@@H](CO)C(=O)N[C@@H](CCCCN)C(=O)N[C@@H](CCCCN)C(=O)N2CCC[C@H]2C(=O)N2CCC[C@H]2C(=O)N[C@@H](C)C(=O)N[C@@H](CCCCN)C(=O)N[C@@H](CC(C)C)C(=O)N[C@@H](CCC(N)=O)C(=O)N2CCC[C@H]2C(=O)N[C@@H](CCCNC(=N)N)C(=O)O)C(C)C)NC(=O)CNC(=O)[C@H](CC(C)C)NC(=O)CNC(=O)[C@H](CO)NC(=O)[C@H](CCSC)NC(=O)[C@H](CO)NC(=O)CNC1=O` [Chimeric CNP (C)] (H-CFGLKLDRIGSMSGLGCVQQRKESKKPPAKLQPR-OH; disulfide 1-17; N-terminus and C-terminus assumed), the half-life in the data set “in vivo” amounted to 15 min. Take `CC[C@H](C)[C@H](NC(=O)[C@@H]1CCCN1C(=O)[C@@H](NC(=O)[C@@H](N)Cc1ccccc1)C(C)C)C(=O)N[C@@H](Cc1ccccc1)C(=O)N[C@H](C(=O)N[C@@H](Cc1ccc(O)cc1)C(=O)NCC(=O)N[C@@H](CCC(=O)O)C(=O)N[C@@H](CC(C)C)C(=O)N[C@@H](CCC(N)=O)C(=O)N[C@@H](CCCNC(=N)N)C(=O)N[C@@H](CCSC)C(=O)N[C@@H](CCC(N)=O)C(=O)N[C@@H](CCC(=O)O)C(=O)N[C@@H](CCCCN)C(=O)N[C@@H](CCC(=O)O)C(=O)N[C@@H](CCCNC(=N)N)C(=O)N[C@@H](CC(N)=O)C(=O)N[C@@H](CCCCN)C(=O)NCC(=O)N[C@@H](CCC(N)=O)C(=O)O)[C@@H](C)O` [Native Motilin, reference compound]: the half-life in data set [1] turned out to be 3.26 min; in data set [2] (intravenous, male rats, N = 3, read-out: T½ Mean Value) it was 3.26 min.

As for `CC[C@H](C)[C@H](NC(=O)[C@@H]1CCCN1C(=O)[C@@H](NC(=O)[C@@H](N)Cc1ccccc1)C(C)C)C(=O)N[C@@H](Cc1ccccc1)C(=O)N[C@H](C(=O)N[C@@H](Cc1ccc(O)cc1)C(=O)NCC(=O)N[C@@H](CCC(=O)O)C(=O)N[C@@H](CC(C)C)C(=O)N[C@@H](CCC(N)=O)C(=O)N[C@@H](CCCNC(=N)N)C(=O)N[C@H](C(=O)N[C@@H](CCC(N)=O)C(=O)N[C@@H](CCC(N)=O)C(=O)N[C@@H](CCCNC(=N)N)C(=O)N[C@@H](CCCCN)C(=O)N[C@@H](CCC(=O)O)C(=O)N[C@@H](CO)C(=O)N[C@@H](CCCCN)C(=O)N[C@@H](CCCCN)C(=O)N1CCC[C@H]1C(=O)N1CCC[C@H]1C(=O)N[C@@H](C)C(=O)N[C@@H](CCCCN)C(=O)N[C@@H](CC(C)C)C(=O)N[C@@H](CCC(N)=O)C(=O)N1CCC[C@H]1C(=O)N[C@@H](CCCNC(=N)N)C(=O)O)C(C)C)[C@@H](C)O` [Chimeric motilin (D)] (H-FVPIFTYGELQRVQQRKESKKPPAKLQPR-OH; N-terminus and C-terminus assumed), the half-life came to 8.9 min in data set [1] and 8.9 min in data set [2] (male, iv). Take `CC[C@H](C)[C@H](NC(=O)[C@@H]1CCCN1C(=O)[C@@H](NC(=O)[C@@H](N)Cc1ccccc1)C(C)C)C(=O)N[C@@H](Cc1ccccc1)C(=O)N[C@H](C(=O)N[C@@H](Cc1ccc(O)cc1)C(=O)NCC(=O)N[C@@H](CCC(=O)O)C(=O)N[C@@H](CC(C)C)C(=O)N[C@@H](CCC(N)=O)C(=O)N[C@@H](CCCNC(=N)N)C(=O)N[C@H](C(=O)N[C@@H](CCC(N)=O)C(=O)N[C@@H](CCC(N)=O)C(=O)N[C@@H](CCCNC(=N)N)C(=O)N[C@@H](CCCCN)C(=O)O)C(C)C)[C@@H](C)O` [Chimeric motilin (M), FVPIFTYGELQRVQQRK] (H-FVPIFTYGELQRVQQRK-OH; N-terminus and C-terminus assumed): the half-life in data set [1] came out at 2.39 min. The “disappearance half-time extending action in vivo compared with native motilin” value in data set [1] (rats) is recorded as “unable to be confirmed”. For `CC[C@H](C)[C@H](NC(=O)[C@@H]1CCCN1C(=O)[C@@H](NC(=O)[C@@H](N)Cc1ccccc1)C(C)C)C(=O)N[C@@H](Cc1ccccc1)C(=O)N[C@H](C(=O)N[C@@H](Cc1ccc(O)cc1)C(=O)NCC(=O)N[C@@H](CCC(=O)O)C(=O)N[C@@H](CC(C)C)C(=O)N[C@@H](CCC(N)=O)C(=O)N[C@@H](CCCNC(=N)N)C(=O)N[C@H](C(=O)N[C@@H](CCC(N)=O)C(=O)N[C@@H](CCC(N)=O)C(=O)N[C@@H](CCCNC(=N)N)C(=O)N[C@@H](CCCCN)C(=O)N[C@@H](CCC(=O)O)C(=O)N[C@@H](CO)C(=O)N[C@@H](CCCCN)C(=O)N[C@@H](CCCCN)C(=O)N1CCC[C@H]1C(=O)N1CCC[C@H]1C(=O)O)C(C)C)[C@@H](C)O` [Chimeric motilin (J)] (H-FVPIFTYGELQRVQQRKESKKPP-OH; N-terminus and C-terminus assumed), in data set [1], the half-life was found to be 6.34 min.

`CC[C@H](C)[C@H](NC(=O)[C@@H]1CCCN1C(=O)[C@@H](NC(=O)[C@@H](N)Cc1ccccc1)C(C)C)C(=O)N[C@@H](Cc1ccccc1)C(=O)N[C@H](C(=O)N[C@@H](Cc1ccc(O)cc1)C(=O)NCC(=O)N[C@@H](CCC(=O)O)C(=O)N[C@@H](CC(C)C)C(=O)N[C@@H](CCC(N)=O)C(=O)N[C@@H](CCCNC(=N)N)C(=O)N[C@@H](CCC(N)=O)C(=O)N[C@@H](CCCNC(=N)N)C(=O)N[C@H](C(=O)N[C@@H](CCC(N)=O)C(=O)N[C@@H](CCC(N)=O)C(=O)N[C@@H](CCCNC(=N)N)C(=O)N[C@@H](CCCCN)C(=O)N[C@@H](CCC(=O)O)C(=O)N[C@@H](CO)C(=O)N[C@@H](CCCCN)C(=O)N[C@@H](CCCCN)C(=O)N1CCC[C@H]1C(=O)N1CCC[C@H]1C(=O)N[C@@H](C)C(=O)N[C@@H](CCCCN)C(=O)N[C@@H](CC(C)C)C(=O)N[C@@H](CCC(N)=O)C(=O)N1CCC[C@H]1C(=O)N[C@@H](CCCNC(=N)N)C(=O)O)C(C)C)[C@@H](C)O` [Chimeric motilin (C)] (H-FVPIFTYGELQRQRVQQRKESKKPPAKLQPR-OH; N-terminus and C-terminus assumed): the half-life in data set [1] came out at 8.9 min. Still for that read-out and setting: then `CC[C@H](C)[C@H](NC(=O)[C@@H]1CCCN1C(=O)[C@@H](NC(=O)[C@@H](N)Cc1ccccc1)C(C)C)C(=O)N[C@@H](Cc1ccccc1)C(=O)N[C@H](C(=O)N[C@@H](Cc1ccc(O)cc1)C(=O)NCC(=O)N[C@@H](CCC(=O)O)C(=O)N[C@@H](CC(C)C)C(=O)N[C@@H](CCC(N)=O)C(=O)N[C@@H](CCCNC(=N)N)C(=O)N[C@H](C(=O)N[C@@H](CCC(N)=O)C(=O)N[C@@H](CCC(N)=O)C(=O)N[C@@H](CCCNC(=N)N)C(=O)N[C@@H](CCCCN)C(=O)N[C@@H](CCC(=O)O)C(=O)N[C@@H](CO)C(=O)N[C@@H](CCCCN)C(=O)N[C@@H](CCCCN)C(=O)N1CCC[C@H]1C(=O)N1CCC[C@H]1C(=O)N[C@@H](C)C(=O)N[C@@H](CCCCN)C(=O)O)C(C)C)[C@@H](C)O` [Chimeric motilin (I)] (H-FVPIFTYGELQRVQQRKESKKPPAK-OH; N-terminus and C-terminus assumed), with 5.76 min; and `CC[C@H](C)[C@H](NC(=O)[C@@H]1CCCN1C(=O)[C@@H](NC(=O)[C@@H](N)Cc1ccccc1)C(C)C)C(=O)N[C@@H](Cc1ccccc1)C(=O)N[C@H](C(=O)N[C@@H](Cc1ccc(O)cc1)C(=O)NCC(=O)N[C@@H](CCC(=O)O)C(=O)N[C@@H](CC(C)C)C(=O)N[C@@H](CCC(N)=O)C(=O)N[C@@H](CCCNC(=N)N)C(=O)N[C@H](C(=O)N[C@@H](CCC(N)=O)C(=O)N[C@@H](CCC(N)=O)C(=O)N[C@@H](CCCNC(=N)N)C(=O)N[C@@H](CCCCN)C(=O)N[C@@H](CCC(=O)O)C(=O)N[C@@H](CO)C(=O)N[C@@H](CCCCN)C(=O)N[C@@H](CCCCN)C(=O)O)C(C)C)[C@@H](C)O` [Chimeric motilin (K)] (H-FVPIFTYGELQRVQQRKESKK-OH; N-terminus and C-terminus assumed), with 6.14 min. In the case of `CC[C@H](C)[C@H](NC(=O)[C@@H]1CCCN1C(=O)[C@@H](NC(=O)[C@@H](N)Cc1ccccc1)C(C)C)C(=O)N[C@@H](Cc1ccccc1)C(=O)N[C@H](C(=O)N[C@@H](Cc1ccc(O)cc1)C(=O)NCC(=O)N[C@@H](CCC(=O)O)C(=O)N[C@@H](CC(C)C)C(=O)N[C@@H](CCC(N)=O)C(=O)N[C@@H](CCCNC(=N)N)C(=O)N[C@@H](CO)C(=O)N1CCC[C@H]1C(=O)N[C@@H](CCC(=O)O)C(=O)N[C@@H](Cc1c[nH]cn1)C(=O)N[C@@H](CCC(N)=O)C(=O)N[C@@H](CCCNC(=N)N)C(=O)N[C@H](C(=O)N[C@@H](CCC(N)=O)C(=O)N[C@@H](CCC(N)=O)C(=O)N[C@@H](CCCNC(=N)N)C(=O)N[C@@H](CCCCN)C(=O)N[C@@H](CCC(=O)O)C(=O)N[C@@H](CO)C(=O)N[C@@H](CCCCN)C(=O)N[C@@H](CCCCN)C(=O)N1CCC[C@H]1C(=O)N1CCC[C@H]1C(=O)N[C@@H](C)C(=O)N[C@@H](CCCCN)C(=O)N[C@@H](CC(C)C)C(=O)N[C@@H](CCC(N)=O)C(=O)N1CCC[C@H]1C(=O)N[C@@H](CCCNC(=N)N)C(=O)O)C(C)C)[C@@H](C)O` [Chimeric motilin (A)] (H-FVPIFTYGELQRSPEHQRVQQRKESKKPPAKLQPR-OH; N-terminus and C-terminus assumed), in data set [1], the half-life was found to be 11.7 min.
